Assay results reported in patent EP0612246B1, “PHARMACEUTICAL COMPOSITIONS OF GALLIUM COMPLEXES OF 3-HYDROXY-4-PYRONES” (BERNSTEIN, Lawrence Richard, priority 1991, dated 1993).

Assays:
[1] = Oral bioavailability study in rabbits: serum gallium by graphite furnace atomic absorption after oral gavage; assay type: in vivo, New Zealand white rabbits; settings: for Mean gallium content of rabbit serum: 10 mg elemental gallium per kg, fasted 18 hours, 3 animals
Description: A test of the oral bioavailability of the 3:1 ethyl maltol:gallium complex in rabbits was conducted. In this test, the complex was given to rabbits and compared to a solution of gallium nitrate. Six female New Zealand white rabbits weighing between 2.68 and 2.91 kg were used, and were not fed for 18 hours before starting the experiment. A suspension of the 3:1 gallium ethyl maltol complex in double distilled water was prepared with a concentration of 10 mg elemental gallium per 4 ml of suspension. […] A small amount of solid sodium carbonate was added to the latter solution to bring the pH up to about 6. Each of the two solutions was given to three rabbits by oral gavage (through a tube inserted through the mouth to the stomach) in the amount of 4 ml per kg of body weight. The stomach tubes were flushed by three ml of water following administration of the solutions.
Six ml of blood was taken from each rabbit at 1 hour, 2 hours, 4 hours, 8 hours, and 24 hours following administration of the solutions, and the serum separated and frozen. Control samples of blood were taken 24 hours earlier. The frozen serum samples were then sent to an independent testing laboratory for determination of the gallium contents by graphite furnace atomic absorption analysis. The testing laboratory received numbered serum samples, and never had any knowledge of the experimental conditions used to produce the samples. Due to uncertainties in the analytical procedures for gallium in serum, the relative proportions of gallium in the serum samples are considered more significant than the actual reported concentrations.
It is important to note that no attempt was made to counteract the adverse effects of the 3:1 gallium ethyl maltol complex being exposed to the acidic conditions of the stomach. This study should therefore be considered to give a minimal value for the oral bioavailability of the gallium ethyl maltol complex compared to gallium nitrate.

[2] = assay type: physicochemical
Description: The stability of the neutral 3:1 maltol:gallium complex was studied in aqueous solutions at various pH values. The complex was studied at two concentrations in double distilled deionized water: 2.5 X 10^-6 M and 1.0 X 10^-2 M. The pH was adjusted by adding either 1N HCl or 1N Na2CO3. The stability of the complex was determined using ultraviolet spectroscopy over the region 200-450 nm at 25°C. Several absorption peaks are observed in this range, including those at about 212-217 nm, 248 nm, 273 nm, 318 nm, and 385 nm. An isobesic point occurs over much of the pH range at about 290 nm. In the very dilute solutions (2.5 X 10^-6 M), the neutral 3:1 complex appears to be stable from about pH 4.5 to 9.5. For the less dilute solutions (1.0 X 10^-2 M), the determination was more difficult due to the very high absorbance.

For `CCc1occc(=O)c1[O][Ga]([O]c1c(CC)occc1=O)[O]c1c(CC)occc1=O` [gallium ethyl maltol], the “absorption compared to gallium nitrate of equal volume and gallium concentration” value ([1]; rabbit, in vivo, po) was “significantly higher amounts”.

In the case of `Cc1occc(=O)c1[O-].Cc1occc(=O)c1[O-].Cc1occc(=O)c1[O-].[Ga+3]` [gallium maltol], the “stability region (pH)” value [2] is reported as “very similar to that of the highly dilute solution, possibly slightly wider”.

For gallium nitrate, the “Mean gallium content of rabbit serum” value ([1]; 1 hour after oral gavage) was 51 ng/mL, the “Mean gallium content of rabbit serum” value ([1]; 2 hours after oral gavage) was 99 ng/mL and the “Mean gallium content of rabbit serum” value ([1]; 4 hours after oral gavage) was 118 ng/mL. For the same molecule, the “Mean gallium content of rabbit serum” value ([1]; 8 hours after oral gavage) was 103 ng/mL and the “Mean gallium content of rabbit serum” value ([1]; 24 hours after oral gavage) was 64 ng/mL.
